According to the supplement of paper PMC10307832:

Legend:
Test in all cases: relative viability (nuclei count vs DMSO), 5 days (fraction); higher = more cells survive
[1] = compound: CCC1=CN=CN=C1N2CCN(CC2)CC3=NC4=C(N3)C=C(C=C4)C(F)(F)F + Cc1nc(NC(=O)N2CCC[C@H]2C(N)=O)sc1-c1ccnc(C(C)(C)C(F)(F)F)c1 [Alpelisib] (partner 2 µM)
How it was run: (§1)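 Relative viability divides the nuclei count in treated wells by that in vehicle wells. Lung cancer cell lines were seeded in 1536-well plates, dosed by pin tool the next day, and fixed and stained after 5 days in one step with final 0.05% Triton X-100, 1% formaldehyde and 1 ug/ml Hoechst. Dosing was a single drug or a fixed anchor-drug dose plus five library-drug doses (not always all listed) in √10 steps, and values are medians of duplicate plates imaged at 4×.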

[2] = compound: CCC1=CN=CN=C1N2CCN(CC2)CC3=NC4=C(N3)C=C(C=C4)C(F)(F)F + Cc1nc(Nc2ncc(C(=O)Nc3c(C)cccc3Cl)s2)cc(N2CCN(CCO)CC2)n1 [Dasatinib] (partner 0.075 µM)
How it was run: as §1

[3] = compound: CCn1c(-c2nonc2N)nc2cnc(Oc3cccc(NC(=O)c4ccc(OCCN5CCOCC5)cc4)c3)cc21 + COc1cccc2cc(-c3nc([C@H]4CC[C@H](C(=O)O)CC4)n4ncnc(N)c34)[nH]c12 [OSI-027] (partner 0.5 µM)
How it was run: as §1

[4] = compound: CCn1c(-c2nonc2N)nc2cnc(Oc3cccc(NC(=O)c4ccc(OCCN5CCOCC5)cc4)c3)cc21 + Nc1nc2[nH]cc(CCc3ccc(C(=O)N[C@@H](CCC(=O)O)C(=O)O)cc3)c2c(=O)[nH]1 [Pemetrexed] (partner 0.2 µM)
How it was run: as §1

Cell Line: NCI-H1355
- relative viability ([1]; first compound 0.04 µM): 0.815
- relative viability ([1]; first compound 0.1265 µM): 0.74
- relative viability ([1]; first compound 0.4 µM): 0.807
- relative viability ([1]; first compound 1.265 µM): 0.732
- relative viability ([1]; first compound 4 µM): 0.797
- relative viability ([2]; first compound 0.04 µM): 0.761
- relative viability ([2]; first compound 0.1265 µM): 0.631
- relative viability ([2]; first compound 0.4 µM): 0.621
- relative viability ([2]; first compound 1.265 µM): 0.657
- relative viability ([2]; first compound 4 µM): 0.735
- relative viability ([3]; first compound 0.04 µM): 0.477
- relative viability ([3]; first compound 0.1265 µM): 0.385
- relative viability ([3]; first compound 0.4 µM): 0.197
- relative viability ([3]; first compound 1.265 µM): 0.306
- relative viability ([3]; first compound 4 µM): 0.312
- relative viability ([4]; first compound 0.04 µM): 1.12
- relative viability ([4]; first compound 0.1265 µM): 1.05
- relative viability ([4]; first compound 0.4 µM): 0.769
- relative viability ([4]; first compound 1.265 µM): 0.835
- relative viability ([4]; first compound 4 µM): 0.581

Cell Line: PC-14
- relative viability ([1]; first compound 0.04 µM): 1.07
- relative viability ([1]; first compound 0.1265 µM): 0.869
- relative viability ([1]; first compound 0.4 µM): 0.959
- relative viability ([1]; first compound 1.265 µM): 0.766
- relative viability ([1]; first compound 4 µM): 0.982
- relative viability ([2]; first compound 0.04 µM): 0.269
- relative viability ([2]; first compound 0.1265 µM): 0.258
- relative viability ([2]; first compound 0.4 µM): 0.264
- relative viability ([2]; first compound 1.265 µM): 0.218
- relative viability ([2]; first compound 4 µM): 0.264
- relative viability ([3]; first compound 0.04 µM): 0.796
- relative viability ([3]; first compound 0.1265 µM): 0.693
- relative viability ([3]; first compound 0.4 µM): 0.586
- relative viability ([3]; first compound 1.265 µM): 0.715
- relative viability ([3]; first compound 4 µM): 0.685
- relative viability ([4]; first compound 0.04 µM): 0.136
- relative viability ([4]; first compound 0.1265 µM): 0.149
- relative viability ([4]; first compound 0.4 µM): 0.131
- relative viability ([4]; first compound 1.265 µM): 0.138
- relative viability ([4]; first compound 4 µM): 0.177

Cell Line: LK-2
- relative viability ([1]; first compound 0.04 µM): 1.14
- relative viability ([1]; first compound 0.1265 µM): 1.09
- relative viability ([1]; first compound 0.4 µM): 0.991
- relative viability ([1]; first compound 1.265 µM): 0.775
- relative viability ([1]; first compound 4 µM): 1.06
- relative viability ([2]; first compound 0.04 µM): 0.325
- relative viability ([2]; first compound 0.1265 µM): 0.314
- relative viability ([2]; first compound 0.4 µM): 0.257
- relative viability ([2]; first compound 1.265 µM): 0.258
- relative viability ([2]; first compound 4 µM): 0.318
- relative viability ([3]; first compound 0.04 µM): 0.201
- relative viability ([3]; first compound 0.1265 µM): 0.225
- relative viability ([3]; first compound 0.4 µM): 0.18
- relative viability ([3]; first compound 1.265 µM): 0.196
- relative viability ([3]; first compound 4 µM): 0.206
- relative viability ([4]; first compound 0.04 µM): 0.308
- relative viability ([4]; first compound 0.1265 µM): 0.354
- relative viability ([4]; first compound 0.4 µM): 0.151
- relative viability ([4]; first compound 1.265 µM): 0.139
- relative viability ([4]; first compound 4 µM): 0.265

Cell Line: NCI-H441
- relative viability ([1]; first compound 0.04 µM): 0.662
- relative viability ([1]; first compound 0.1265 µM): 0.629
- relative viability ([1]; first compound 0.4 µM): 0.762
- relative viability ([1]; first compound 1.265 µM): 0.753
- relative viability ([1]; first compound 4 µM): 0.612
- relative viability ([2]; first compound 0.04 µM): 0.761
- relative viability ([2]; first compound 0.1265 µM): 0.545
- relative viability ([2]; first compound 0.4 µM): 0.581
- relative viability ([2]; first compound 1.265 µM): 0.668
- relative viability ([2]; first compound 4 µM): 0.605
- relative viability ([3]; first compound 0.04 µM): 0.772
- relative viability ([3]; first compound 0.1265 µM): 0.721
- relative viability ([3]; first compound 1.265 µM): 0.513
- relative viability ([3]; first compound 4 µM): 0.472
- relative viability ([4]; first compound 0.04 µM): 0.261
- relative viability ([4]; first compound 0.1265 µM): 0.26
- relative viability ([4]; first compound 0.4 µM): 0.251
- relative viability ([4]; first compound 1.265 µM): 0.243
- relative viability ([4]; first compound 4 µM): 0.252

Cell Line: NCI-H23
- relative viability ([1]; first compound 0.04 µM): 0.807
- relative viability ([1]; first compound 0.1265 µM): 0.652
- relative viability ([1]; first compound 0.4 µM): 0.706
- relative viability ([1]; first compound 1.265 µM): 0.599
- relative viability ([1]; first compound 4 µM): 0.781
- relative viability ([2]; first compound 0.04 µM): 0.794
- relative viability ([2]; first compound 0.1265 µM): 0.897
- relative viability ([2]; first compound 0.4 µM): 0.653
- relative viability ([2]; first compound 1.265 µM): 0.769
- relative viability ([2]; first compound 4 µM): 0.865
- relative viability ([3]; first compound 0.04 µM): 0.614
- relative viability ([3]; first compound 0.1265 µM): 0.768
- relative viability ([3]; first compound 0.4 µM): 0.249
- relative viability ([3]; first compound 1.265 µM): 0.534
- relative viability ([3]; first compound 4 µM): 0.525
- relative viability ([4]; first compound 0.04 µM): 0.864
- relative viability ([4]; first compound 0.1265 µM): 0.74
- relative viability ([4]; first compound 0.4 µM): 0.442
- relative viability ([4]; first compound 1.265 µM): 0.532
- relative viability ([4]; first compound 4 µM): 0.431

Cell Line: NCI-H1395
- relative viability ([1]; first compound 0.04 µM): 1.04
- relative viability ([1]; first compound 0.1265 µM): 1.1
- relative viability ([1]; first compound 0.4 µM): 1.05
- relative viability ([1]; first compound 1.265 µM): 0.951
- relative viability ([1]; first compound 4 µM): 1.04
- relative viability ([2]; first compound 0.04 µM): 0.441
- relative viability ([2]; first compound 0.1265 µM): 0.405
- relative viability ([2]; first compound 0.4 µM): 0.371
- relative viability ([2]; first compound 1.265 µM): 0.442
- relative viability ([2]; first compound 4 µM): 0.384
- relative viability ([3]; first compound 0.04 µM): 0.785
- relative viability ([3]; first compound 0.1265 µM): 0.512
- relative viability ([3]; first compound 0.4 µM): 0.525
- relative viability ([3]; first compound 1.265 µM): 0.351
- relative viability ([3]; first compound 4 µM): 0.384
- relative viability ([4]; first compound 0.04 µM): 0.961
- relative viability ([4]; first compound 0.1265 µM): 0.825
- relative viability ([4]; first compound 0.4 µM): 0.736
- relative viability ([4]; first compound 1.265 µM): 0.519
- relative viability ([4]; first compound 4 µM): 0.434

Cell Line: NCI-H596
- relative viability ([1]; first compound 0.04 µM): 0.573
- relative viability ([1]; first compound 0.1265 µM): 0.431
- relative viability ([1]; first compound 0.4 µM): 0.443
- relative viability ([1]; first compound 1.265 µM): 0.459
- relative viability ([1]; first compound 4 µM): 0.508
- relative viability ([2]; first compound 0.04 µM): 0.679
- relative viability ([2]; first compound 0.1265 µM): 0.608
- relative viability ([2]; first compound 0.4 µM): 0.555
- relative viability ([2]; first compound 4 µM): 0.668
- relative viability ([3]; first compound 0.04 µM): 0.755
- relative viability ([3]; first compound 0.1265 µM): 0.715
- relative viability ([3]; first compound 0.4 µM): 0.591
- relative viability ([3]; first compound 1.265 µM): 0.528
- relative viability ([3]; first compound 4 µM): 0.615
- relative viability ([4]; first compound 0.04 µM): 0.438
- relative viability ([4]; first compound 0.1265 µM): 0.484
- relative viability ([4]; first compound 0.4 µM): 0.462
- relative viability ([4]; first compound 1.265 µM): 0.451
- relative viability ([4]; first compound 4 µM): 0.48

Cell Line: NCI-H460
- relative viability ([1]; first compound 0.04 µM): 0.445
- relative viability ([1]; first compound 0.1265 µM): 0.559
- relative viability ([1]; first compound 0.4 µM): 0.385
- relative viability ([1]; first compound 1.265 µM): 0.398
- relative viability ([1]; first compound 4 µM): 0.583
- relative viability ([2]; first compound 0.04 µM): 0.583
- relative viability ([2]; first compound 0.1265 µM): 0.467
- relative viability ([2]; first compound 0.4 µM): 0.544
- relative viability ([2]; first compound 1.265 µM): 0.472
- relative viability ([2]; first compound 4 µM): 0.541
- relative viability ([3]; first compound 0.04 µM): 0.741
- relative viability ([3]; first compound 0.1265 µM): 0.561
- relative viability ([3]; first compound 0.4 µM): 0.364
- relative viability ([3]; first compound 1.265 µM): 0.163
- relative viability ([3]; first compound 4 µM): 0.0569
- relative viability ([4]; first compound 0.04 µM): 0.0568
- relative viability ([4]; first compound 0.1265 µM): 0.0572
- relative viability ([4]; first compound 0.4 µM): 0.0592
- relative viability ([4]; first compound 1.265 µM): 0.0521
- relative viability ([4]; first compound 4 µM): 0.0564
